Reference: the PolyMetriX glass transition set
± gives the standard deviation of the reports.

| glass transition temperature [°C] | SMILES |
| --- | --- |
| 210.50 | *Oc1ccc(S(=O)(=O)c2ccc(Oc3ccc(C(C)(C)c4ccc(*)cc4)cc3)cc2N)c(N)c1 (repeat unit) |
| 252.00 | *Oc1cccc2ccc(Oc3ccc(NC(=O)c4ccc(C(c5ccc(C(=O)Nc6ccc(*)cc6)cc5)(C(F)(F)F)C(F)(F)F)cc4)cc3)cc12 (repeat unit) |
| 238.00 | *CC(*)c1ccc(B(Oc2ccc(Cl)c3cccnc23)c2ccc(C(C)(C)C)cc2)cc1 (repeat unit) |
| 279.00 | *C(=O)Nc1c(C)cc(Cc2cc(C)c(NC(=O)c3ccc4c(c3)C(=O)N(c3ccc(/N=N/c5ccc(F)cc5)c(N5C(=O)c6ccc(*)cc6C5=O)c3)C4=O)c(C)c2)cc1C (repeat unit) |
| 100.60 | *CC(COc1ccc(C(C)(C)c2ccc(O*)cc2)cc1)OC(=O)/C=C/c1ccccc1 (repeat unit) |
| 98.00 | *CC(*)c1ccc(C(=O)c2ccccc2)cc1 (repeat unit) |
| 237.00 | *Oc1ccc(OC(=O)c2ccc(C(*)=O)cc2)cc1CCC(C)CC (repeat unit) |
| 323.8 ± 24 | *c1ccc(-c2ccc(N3C(=O)c4ccc(-c5ccc6c(c5)C(=O)N(*)C6=O)cc4C3=O)cc2C(F)(F)F)c(C(F)(F)F)c1 (repeat unit) |
| 190.00 | *CCCCCCN1C(=O)c2ccc(C(=O)Nc3ccc(S(=O)(=O)c4cccc(NC(=O)c5ccc6c(c5)C(=O)N(*)C6=O)c4)cc3)cc2C1=O (repeat unit) |
| 268.50 | *c1ccc(Oc2ccc(-c3ccc4nc(Oc5cc(-c6ccccc6)c6cc(*)ccc6n5)cc(-c5ccccc5)c4c3)cc2)cc1 (repeat unit) |
| 174.00 | *Oc1cccc(Oc2ccc(/N=C/c3ccc(N(c4ccccc4)c4ccc(/C=N/c5ccc(*)cc5)cc4)cc3)cc2)c1 (repeat unit) |
| 258.00 | *C(=O)c1ccc2c(c1)C(=O)N(c1cccc(Cc3ccccc3N3C(=O)c4ccc(*)cc4C3=O)c1)C2=O (repeat unit) |
| 246.00 | *c1ccc(O)c(N2C(=O)c3ccc(Oc4ccc(C(C)(C)c5ccc(Oc6ccc7c(c6)C(=O)N(*)C7=O)cc5)cc4)cc3C2=O)c1 (repeat unit) |
| 267.00 | *Oc1ccc(-c2ccc(OC(=O)c3ccc(C(*)=O)cc3)cc2)cc1 (repeat unit) |
| -52.00 | *O[Si](C)(C)O[Si](C)(C)O[Si](C)(C)O[Si](C)(C)c1ccc(Oc2ccc([Si](*)(C)C)cc2)cc1 (repeat unit) |
| 234.00 | *c1ccc(N(c2ccc(C#N)cc2)c2ccc(N3C(=O)c4ccc(Oc5ccc(C(c6ccc(Oc7ccc8c(c7)C(=O)N(*)C8=O)cc6)(C(F)(F)F)C(F)(F)F)cc5)cc4C3=O)cc2)cc1 (repeat unit) |

| glass transition temperature [°C] | SMILES |
| --- | --- |
| 370.00 | *C(=O)Nc1ccc(-c2ccc(NC(=O)c3ccc4c(c3)C(=O)N(c3ccc(S(=O)(=O)c5ccc(N6C(=O)c7ccc(*)cc7C6=O)cc5)cc3)C4=O)cc2)cc1 (repeat unit) |
| 207.40 | *Oc1ccc(NC(=O)c2cc(C(=O)Nc3ccc(*)cc3)c(C(=O)O)cc2C(=O)O)cc1 (repeat unit) |
| 269.50 | *Oc1ccc(C2(c3ccc(OC(=O)c4cccc(C(*)=O)c4)cc3)c3ccccc3-c3ccccc32)cc1 (repeat unit) |
| -9.00 | */C=C/[Si](*)(c1ccccc1)c1ccccc1 (repeat unit) |
| 240.00 | *C(=O)c1ccc2c(c1)C(=O)N(c1cccc(Cc3ccc(Cc4cccc(N5C(=O)c6ccc(*)cc6C5=O)c4)cc3)c1)C2=O (repeat unit) |
| 250.00 | *C(=O)Nc1ccc(Oc2ccc(Oc3ccc(N4C(=O)c5ccc(*)cc5C4=O)cc3)cc2)cc1 (repeat unit) |
| 103.00 | *c1ccc(Oc2ccc(-c3cc(OCCCCCC)c(-c4ccc(Oc5ccc(-c6nnc(*)o6)cc5)cc4)cc3OCCCCCC)cc2)cc1 (repeat unit) |
| 200.00 | */C(=C(/*)c1ccc(CCCC)cc1)c1ccccc1 (repeat unit) |
| 260.50 | *C(=O)c1ccc2c(c1)C(=O)N(c1cccc(C(=O)c3ccc(Cc4ccc(C(=O)c5cccc(N6C(=O)c7ccc(*)cc7C6=O)c5)cc4)cc3)c1)C2=O (repeat unit) |
| 279.00 | *Oc1cccc(C(=O)Nc2ccc(-c3ccc(NC(=O)c4cccc(Oc5nc(*)nc(Sc6ccccc6)n5)c4)cc3)cc2)c1 (repeat unit) |
| 304.00 | *c1ccc(NC2CC(=O)N(c3ccc(-c4sc(-c5ccc(N6C(=O)CC(Nc7ccc(-c8nc(-c9ccc(/C=C/c%10ccc([N+](=O)[O-])cc%10)s9)[nH]c8*)cc7)C6=O)cc5)c(-c5ccccc5)c4-c4ccccc4)cc3)C2=O)cc1 (repeat unit) |
| 200.00 | *Oc1ccc(Oc2ccc(Oc3ccc(NC(=O)c4ccc(-c5ccc(C(=O)Nc6ccc(*)cc6)c(C)c5)cc4C)cc3)cc2)cc1 (repeat unit) |
| 220.00 | *c1cc(C(c2ccc(OCCN(c3ccccc3)c3ccc(/C=C/C4=CC(=C(C#N)C#N)CC(C)(C)C4)cc3)c(N3C(=O)c4ccc(Oc5ccc6c(c5)C(=O)N(*)C6=O)cc4C3=O)c2)(C(F)(F)F)C(F)(F)F)ccc1OCCN(c1ccccc1)c1ccc(/C=C/C2=CC(=C(C#N)C#N)CC(C)(C)C2)cc1 (repeat unit) |
| 140.00 | *CC(*)(C)C(=O)OCc1ccc(/C=C/C(=O)Oc2ccc3oc(=O)ccc3c2)cc1 (repeat unit) |
| 105.00 | *CCOCCOCCN1C(=O)c2ccc(C(=O)Oc3ccc4cc(OC(=O)c5ccc6c(c5)C(=O)N(*)C6=O)ccc4c3)cc2C1=O (repeat unit) |

The remaining lines, values behind:

| SMILES | glass transition temperature [°C] |
| --- | --- |
| *CCCCCCCCCOC(=O)c1ccc(-c2ccc(C(=O)O*)cc2)cc1 (repeat unit) | 50.50 |
| *CC(*)c1ccc(Cl)c([N+](=O)[O-])c1 (repeat unit) | 132.90 |
| *CC(=O)NCCCCCCNC(=O)COC(=O)CCC(=O)O* (repeat unit) | 30.00 |
| *CC(*)(C)C(=O)OCCCCCCOc1ccc(-c2ccc(C#N)cc2)cc1 (repeat unit) | 63.00 |
| *CCCOC(=O)c1cccc(C(=O)O*)c1 (repeat unit) | 36.00 |
| *O[Si](*)(C)CCCCCCCCCCC(=O)OCCC(F)(F)C(F)(F)C(F)(F)C(F)(F)C(F)(F)C(F)(F)F (repeat unit) | -69.00 |
| *CC(*)C(=O)OCCOc1ccc(C(C)(C)c2ccc(OCCO)cc2)cc1 (repeat unit) | 22.00 |
| *Oc1ccc(OC(=O)CCCCCCCCC(*)=O)cc1 (repeat unit) | 52.80 |
| *CCCCCCCCCCCC(=O)Oc1ccc(OC(=O)c2ccc3c(c2)C(=O)N(*)C3=O)cc1 (repeat unit) | 58.00 |
| *Oc1ccc(P(C)(=O)c2ccc(Oc3ccc(C(c4ccccc4)(c4ccc(*)cc4)C(F)(F)F)cc3)cc2)cc1 (repeat unit) | 229.00 |
| *CC(*)c1ccc(I)cc1 (repeat unit) | 158.00 |
| *Oc1ccc(CC(NC(=O)CCc2ccc(OC(=O)CCC(*)=O)cc2)C(=O)OCCCCCCCC)cc1 (repeat unit) | 48.00 |
| *CC(OC(=O)OCC)C(COC(=O)O*)OC(=O)OCC (repeat unit) | 49.80 |
| *CCCN(*)C(=O)C(F)(F)C(F)(F)C(F)(F)C(F)(F)C(F)(F)C(F)(F)C(F)(F)F (repeat unit) | 25.00 |
| *CC(*)c1ccc(CCCCCCCC)cc1 (repeat unit) | -45.00 |
| *CCCCCCOC(=O)OCCCCCCOC(=O)OCCCCCCOc1ccc(-c2ccc(O*)cc2)cc1 (repeat unit) | 16.60 |
| *CCCCCCCCCCCCCCCCOC(=O)CC/C=C/CCC(=O)O* (repeat unit) | -18.00 |
| *COC(=O)OC1C(*)OC2OC(C)(C)OC21 (repeat unit) | 128.00 |

| SMILES | glass transition temperature [°C] |
| --- | --- |
| *OC(=O)C(CC(C)C)NC(=O)CCCCCCCCC(=O)NC(CC(C)C)C(=O)OC1COC2C(*)COC12 (repeat unit) | 89.00 |
| */C=C/C(C)C(*)C(=O)OC12CC3CC(CC(C3)C1)C2 (repeat unit) | 115.00 |
| *CCCCCCNC(=O)CCCCCCCCCCCCCCCCC(=O)N* (repeat unit) | 47.00 |
| *CC(C)(C)COC(=O)NC(=O)c1cc(C(=O)NC(=O)O*)cc(C(C)(C)C)c1 (repeat unit) | 144.00 |
| *CCCCCCc1nc2cc(NC(=O)CCCCCCCCC(=O)Nc3ccc4oc(*)nc4c3)ccc2o1 (repeat unit) | 86.00 |
| *Oc1cccc(OC(=O)CCC(*)=O)c1 (repeat unit) | 38.20 |
| *CCCCOC(=O)OCC1CCC(COC(=O)O*)CC1 (repeat unit) | 13.00 |
| *C(=O)OCCCCCCCCCCCOC(=O)c1ccc(N2C(=O)c3ccc(*)cc3C2=O)cc1 (repeat unit) | 49.00 |
| *Cc1cccc(C[n+]2ccc(-c3cc[n+](*)cc3)cc2)c1 (repeat unit) | 128.00 |
| *CC1CC2CC1C1CCC(CN3C(=O)c4ccc(C(c5ccc6c(c5)C(=O)N(*)C6=O)(C(F)(F)F)C(F)(F)F)cc4C3=O)C21 (repeat unit) | 207.00 |
| *CC(*)(C)C(=O)O (repeat unit) | 161.70 |
| *c1cc(-n2c(=O)c3cc4c(=O)n(*)c(=O)c4cc3c2=O)c(O)cc1O (repeat unit) | 362.00 |
| *c1ccc(C(F)(F)C(*)(F)F)cc1 (repeat unit) | 77.0 |
| *c1ccc2c(c1)C(CCCCCC)(CCCCCC)c1cc(-c3cc(CCCCCCCC)c(*)cc3CCCCCCCC)ccc1-2 (repeat unit) | 74.50 |
| *C1C2CC(C1*)C([Si](C)(C)C)C2 (repeat unit) | 303.00 |
| *C1CCC(CC2CCC(N3C(=O)c4ccc(-c5ccc6c(c5)C(=O)N(*)C6=O)cc4C3=O)C(C)C2)CC1C (repeat unit) | 260.00 |
| *CCCCOC(=O)CCCCCCCCC(=O)O* (repeat unit) | -57.00 |
| *OC(=O)OCCCCCCCCCCOC(=O)OC1COC2C(*)COC12 (repeat unit) | 6.50 |
